Measured values from patent publication US8420865B2, “Phosphine compound, process for producing the same, and peroxide scavenger using the same” (Fukuoka University, priority 2008, dated 2013).

Assays:
[1] = Oxidation of MitoDPPP with hydrogen peroxide in dimethylsulfoxide solution, fluorescence intensity over time; details: MitoDPPP 16 μM in dimethylsulfoxide, 10 mM H2O2, 10 minutes, FIG. 1
Protocol: The time scale changes in fluorescence intensity were monitored for the oxidation with hydrogen peroxide of [3-(4-Phenoxyphenylphosphinopyrenylphosphino)propyl]triphenylphosphonium iodide [Ia] (MitoDPPP) obtained in EXAMPLE 1.
After 10 mM H2O2 was added dropwise to a dimethylsulfoxide solution of MitoDPPP (16 μM), fluorescence intensities at the fluorescence wavelength of 380 nm were measured for 10 minutes.

[2] = Oxidation of MitoDPPP in an aqueous solution with hydrogen peroxide and tBHP; details: FIG. 4
HepG2 cells [3] = assay: Loading of MitoDPPP into HepG2 cells, fluorescence microscopy, comparison with Mito Tracker Green FM; format: cell-based; details: fluorescence microscope, comparison/double-staining with mitochondria-selective fluorescent dye, FIG. 2
Protocol: Loading of MitoDPPP into HepG2 cells was examined. A 20% dimethylsulfoxide solution of MitoDPPP (16 μM) was prepared and the solution was loaded into HepG2 cells for 10 minutes to stain the cells. After washing with PBS, the cells were observed under a fluorescence microscope.

HepG2 cells [4] = assay: Loading into HepG2 cells and oxidation stimulated with tert-butoxyhydroperoxide (tBHP), fluorescence microscopy; format: cell-based; details: MitoDPPP 16 μM loaded 2 minutes, ten minutes after tBHP, FIG. 3
Protocol: Loading of MitoDPPP into HepG2 cells and oxidation stimulated with tert-butoxyhydroperoxide (tBHP) were monitored. A 0.1% dimethylsulfoxide solution of MitoDPPP (16 μM) was prepared. The solution was loaded into HepG2 cells for 2 minutes to stain the cells. The cells were washed with PBS and observed under a fluorescence microscope. Next, tert-butoxyhydroperoxide (tBHP) was added to the cells. Ten minutes later, the cells were observed under the fluorescence microscope.

HepG2 cells [5] = assay: Oxidation of MitoDPPP loaded into HepG2 cells, hydrogen peroxide compared with tBHP, microplate reader; format: cell-based; details: MitoDPPP 16 μM loaded 10 minutes, FIG. 4
Protocol: The oxidation of MitoDPPP loaded into HepG2 cells was compared for hydrogen peroxide and tBHP. A 0.1% dimethylsulfoxide solution of MitoDPPP (16 μM) was prepared. The solution was loaded into HepG2 cells for 10 minutes. After washing the cells with PBS, hydrogen peroxide was added to the cells and the increase in fluorescence intensity was monitored on a microplate reader.

In the case of `[I-].c1ccc(Oc2ccc(P(CCC[P+](c3ccccc3)(c3ccccc3)c3ccccc3)c3ccc4ccc5cccc6ccc3c4c56)cc2)cc1` (stereo not drawn) [MitoDPPP], the “fluorescence intensity at the fluorescence wavelength of 380 nm on oxidation with hydrogen peroxide” value [1] is reported as “increase in the fluorescence intensity”, the “oxidation with hydrogen peroxide in an aqueous solution” value ([2]; hydrogen peroxide) is reported as “proceeds rapidly” and the “oxidation with tBHP in an aqueous solution” value ([2]; tBHP) is reported as “proceeds rapidly”. For the same molecule, the localization in cells (HepG2 cells [3]) was “localized in mitochondria”, the “brightness of stained cells after tBHP loading compared to before” value (HepG2 cells [4]) was “increased” and the “oxidation with hydrogen peroxide of MitoDPPP loaded into HepG2 cells” value (HepG2 cells [5]) was “not oxidized”.
